Data set [1] addresses TRPA1 (Homo sapiens, UniProt O75762). In words: Whole-cell patch clamp in cells expressing TRPA1. The format is cell-based. The protocol: Electrophysiological recording was carried out 1-3 d after cells seeded. Membrane currents and voltages were recorded by patch clamp using the whole-cell configuration. […] In calcium-free bath solution, CaCl2 was replaced with 5mM EGTA. For potassium and sodium recordings, CsCl was substituted by KCl and the pH was adjusted to pH 7.2 with KOH. Patch pipettes were prepared from thin-walled borosilicate glass capillaries (World Precision Instruments, Sarasota, FL, USA), pulled with a horizontal puller (P-97, Sutter Instruments, Novato, CA, USA) to have a tip resistance of 2-4 MΩ when filled with internal solutions. Data were sampled at 10 kHz (EPC10 amplifier with PatchMaster 2.53 software, HEKA Electronics, Lambrecht, Germany) and low-pass filtered at 3 kHz for analysis (PatchMaster 2.53 and GraphPad Prism 5, Graphpad Software, USA). The series resistance was <10 MΩ and to minimize voltage errors was compensated to 60-80%. All measurements were performed at 24-25°C. The temperature was adjusted with a water-cooled Peltier device placed at the inlet of the chamber and controlled by a feedback device (Automatic Temperature Controller TC-324B, Warner Instruments). Cold-sensitivity was investigated with a temperature decrease to 16-18 °C. page 44: Figure 1S. […] A) […] compound 41 (blue line). Pre-application of compound (20 s) was followed by coapplication with 500 […] 41. […] C) […] Pre-application of […] Voltage was held at -60 mV for all the experiments. […] (1 picture or pasted object on this page, not shown here)
On the technique in general: Patch clamp records ionic current or voltage across a cell membrane.

In data set [2] the target is TRPV1 (Rattus norvegicus, UniProt O35433). The data set is described as follows: Ca2+ microfluorography (Fluo-4 NW), capsaicin-induced Ca2+ signal in SH-SY5Y-TRPV1 cells. The format is cell-based. As to conditions: 50 µM compound; agonist 10 µM capsaicin; SH-SY5Y-TRPV1 cells. The protocol: All compounds were tested at two different concentrations (50 and 5 µM) on TRPM8 and TRPV1 channels stably expressed in HEK and SH-SY5Y cell lines, respectively. The agonist induced intracellular Ca^2+ signals were measured using a fluorescent Ca^2+ indicator, in the absence and in the presence of test compounds. […] The obtained results were compared to those of 68 (AMTB, TRPM8 antagonist) and ruthenium red (TRPV1 antagonist). The IC50 values for the assay on TRPM8 were also calculated.
Chain of TRPV1 (O35433 whole entry): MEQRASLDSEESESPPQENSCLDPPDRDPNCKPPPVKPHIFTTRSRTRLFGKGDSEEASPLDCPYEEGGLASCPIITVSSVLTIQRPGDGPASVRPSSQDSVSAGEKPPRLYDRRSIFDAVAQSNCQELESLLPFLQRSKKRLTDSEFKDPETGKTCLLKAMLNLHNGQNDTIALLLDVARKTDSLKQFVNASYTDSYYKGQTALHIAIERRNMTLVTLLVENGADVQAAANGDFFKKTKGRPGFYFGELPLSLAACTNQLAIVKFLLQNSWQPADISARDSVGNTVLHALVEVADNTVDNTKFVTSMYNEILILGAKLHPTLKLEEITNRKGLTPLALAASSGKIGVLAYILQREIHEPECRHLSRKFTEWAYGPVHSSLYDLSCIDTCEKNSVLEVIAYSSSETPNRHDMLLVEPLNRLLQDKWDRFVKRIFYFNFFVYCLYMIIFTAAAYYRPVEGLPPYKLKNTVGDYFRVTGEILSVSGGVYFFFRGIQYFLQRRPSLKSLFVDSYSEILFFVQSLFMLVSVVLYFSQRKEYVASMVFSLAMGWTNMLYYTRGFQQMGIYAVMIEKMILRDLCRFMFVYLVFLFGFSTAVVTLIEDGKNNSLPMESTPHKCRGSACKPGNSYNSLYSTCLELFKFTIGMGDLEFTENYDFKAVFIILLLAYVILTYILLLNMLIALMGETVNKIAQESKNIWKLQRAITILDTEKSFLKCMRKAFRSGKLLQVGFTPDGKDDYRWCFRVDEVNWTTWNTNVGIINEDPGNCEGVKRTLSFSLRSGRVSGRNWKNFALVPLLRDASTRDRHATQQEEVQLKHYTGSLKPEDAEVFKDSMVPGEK
For fluorescence assays, cells expressing TRP channels (SH-SY5Y-TRPV1 and HEKCR1-TRPM8) were seeded in 96-well plates (Corning Incorporated, Corning, NY) at a cell density of 40,000 cells 2 days before treatment. The day of treatment the medium was replaced with 100 µL of the dye loading solution Fluo-4 NW supplemented with probenecid 2.5 mM. Then the compounds dissolved in DMSO were added at the desired concentrations and the plate(s) were incubated at 37 °C in a humidified atmosphere of 5% CO2 for 60 minutes.
The fluorescence was measured using instrument settings appropriate for excitation at 485 nm and emission at 535 nm (POLARstar Omega BMG LABtech). […] The corresponding antagonist
(10 µM Ruthenium Red forTRPV1 and 10 µM 68 for TRPM8) was added for the blockade. The changes in fluorescence intensity were recorded during 15 cycles more. […] The blocking percentage was calculated as follow (Eq. 1):1 %TRPBlockedResponse=(1−Fo−Fi/FCo−FCi)∗100 where Fo is the fluorescence after the addition of menthol in the presence of the compound, Fi is the fluorescence before the addition of menthol in the presence of the compound, FCo is the fluorescence after the addition of menthol in the absence of the compound, FCi is the fluorescence before the addition of menthol in the absence of the compound. To guarantee that our results were useful we only used assays with a Z-factor higher than 0.5.
The statistical Z-factor to determine the quality of the HTS experiment as was calculated using the equation 2:2 Z‐factor=1−3∗(SDmax+SDmin)/Meanmax−Meanmin where: Meanmax is the mean of the maximum fluorescence in the presence of agonist, SDmax is the standard deviation of the maximum fluorescence in the presence of agonists, Meanmin is the mean of the maximum fluorescence in the presence of agonist and antagonist and SDmin is the standard deviation of the maximum fluorescence in the presence of agonist and antagonist.

Data set [3] is described as follows: Kinetic solubility. The format is physicochemical.

The values that follow come from article PMC5589751, “Synthesis, high-throughput screening and pharmacological characterization of β–lactam derivatives as TRPM8 antagonists” (Scientific Reports, 2017).

Chain of TRPA1 (O75762 whole entry, species assumed): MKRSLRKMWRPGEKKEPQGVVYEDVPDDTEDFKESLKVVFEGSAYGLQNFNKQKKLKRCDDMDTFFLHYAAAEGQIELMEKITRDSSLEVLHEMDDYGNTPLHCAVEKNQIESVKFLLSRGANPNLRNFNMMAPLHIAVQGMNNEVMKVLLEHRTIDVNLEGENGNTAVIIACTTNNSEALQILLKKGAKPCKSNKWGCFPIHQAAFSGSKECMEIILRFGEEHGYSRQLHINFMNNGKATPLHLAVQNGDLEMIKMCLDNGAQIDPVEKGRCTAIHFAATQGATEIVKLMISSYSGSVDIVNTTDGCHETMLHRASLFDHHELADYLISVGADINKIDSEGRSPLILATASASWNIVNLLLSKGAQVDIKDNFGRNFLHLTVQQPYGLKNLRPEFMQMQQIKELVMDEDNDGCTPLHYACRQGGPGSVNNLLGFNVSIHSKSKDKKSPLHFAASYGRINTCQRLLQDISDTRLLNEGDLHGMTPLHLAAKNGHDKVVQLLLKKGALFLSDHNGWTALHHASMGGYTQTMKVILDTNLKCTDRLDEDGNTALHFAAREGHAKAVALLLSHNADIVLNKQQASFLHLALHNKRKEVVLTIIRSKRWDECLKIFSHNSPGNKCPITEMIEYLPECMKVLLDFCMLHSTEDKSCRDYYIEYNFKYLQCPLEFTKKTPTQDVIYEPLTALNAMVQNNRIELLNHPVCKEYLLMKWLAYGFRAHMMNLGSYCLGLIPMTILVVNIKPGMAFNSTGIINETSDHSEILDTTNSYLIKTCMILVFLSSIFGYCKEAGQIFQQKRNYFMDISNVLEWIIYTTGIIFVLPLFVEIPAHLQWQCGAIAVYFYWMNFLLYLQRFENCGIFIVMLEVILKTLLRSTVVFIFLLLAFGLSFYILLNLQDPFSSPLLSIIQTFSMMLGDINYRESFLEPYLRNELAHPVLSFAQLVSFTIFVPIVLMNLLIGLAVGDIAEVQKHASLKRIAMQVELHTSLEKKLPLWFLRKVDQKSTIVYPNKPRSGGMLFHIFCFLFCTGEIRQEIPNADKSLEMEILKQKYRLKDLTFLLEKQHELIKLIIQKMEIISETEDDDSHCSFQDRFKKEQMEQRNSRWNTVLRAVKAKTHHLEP

In the case of `CC1C(=O)N(CC[C@H](NC(=O)OC(C)(C)C)C(=O)OCc2ccccc2)C1(Cc1ccccc1)C(=O)OCc1ccccc1` (stereo partly drawn) [Compound 45, 4R,S-Benzyl-4-benzyloxycarbonyl-1-[(3′S-benzyloxycarbonyl-3′-tert-butoxycarbonylamino)prop-1′-yl]-(3R,S)-methyl-2-oxoazetidine], in data set [1], the IC50 – broadly, the concentration at which inhibition is half-maximal – was above 1000 nM. Besides, in data set [2], the “% Block TRPV1 50 µM” value was 31.8 ± 6.5%.

With `CC(C)(C)OC(=O)N[C@@H](CCN1C(=O)CC1(Cc1ccccc1)C(=O)OCc1ccccc1)C(=O)OCc1ccccc1` (stereo partly shown) [Compound 41, 4R,S-Benzyl-4-benzyloxycarbonyl-1-[(3′S-benzyloxycarbonyl-3-tert-butoxycarbonylamino-3′-benzyloxycarbonyl)prop-1′-yl]-2-oxoazetidine], the IC50 in data set [1] is above 1000 nM. In addition, the “agonist activity (activation) on TRPA1” value in data set [1] (1 µM compound, −60 mV) is recorded as “did not produce activation”. Moreover, the Kinetic solubility in data set [3] (1% DMSO) and in data set [3] (5% DMSO) was below 10 µM in each case. Also, the “% Block TRPV1 50 µM” value in data set [2] came out at 38.3 ± 17.9%.
